According to US20220071932A1, “Compositions and Methods Against Stress-Induced Affective Disorders and Their Associated Symptoms” (The Trustees of Columbia University in the City of New York, priority 2019, published 2022):

Assays:
[1] = tested on: depressive symptoms in patients; conditions: subanesthetic dose; patients; cited from earlier work
[2] = tested on: c-fos; assay: c-fos immunohistochemistry in hippocampus after CFC re-exposure; assay type: in vivo, mice; conditions: one week prior to CFC, sacrificed one hour after re-exposure; (R,S)-ketamine 30 mg/kg, FENM 20 mg/kg; vs saline
Procedure: Immunohistochemistry was performed as previously described (46). Mice were deeply anesthetized, and brains were fixed and extracted using transcardial perfusion. For c-fos immunohistochemistry, floating sections were used. Sections were first rinsed three times in 1×PBS and then blocked in 1×PBS with 0.5% Triton X-100 and 10% NDS for 2 hours at room temperature (RT). Incubation with primary antibodies was performed at 4° C. overnight (rabbit anti-c-fos, 1:5000, SySy, Göettingen, Germany, 226 003) in 1×PBS with 0.5% Triton X-100. Sections were then washed three times in 1×PBS and incubated with secondary antibody (Alexa 647 anti-rabbit, 1:500, Thermo Fisher Scientific, Waltham, Mass. A32733) for 2 hours at RT. Sections were then washed three times in 1×PBS, mounted on slides, and coverslipped with ProLong Gold (Invitrogen, Carlsbad, Calif.).
Fluorescent confocal micrographs were captured with a Leica TCS SPE-II confocal microscope with LAS X software. Bilateral hippocampal sections were imaged throughout the rostro-caudal axis of the HPC using a 20× objective. Identification of hippocampal regions involved acquiring 6 dorsal and ventral sections per mouse brain slice at 20×. […]
An investigator blind to treatment groups used FIJI software to count c-fos^+ immunoreactive cells in the DG, CA3, and CA1 throughout the entire rostrocaudal axis of the HPC. Cells were counted bilaterally. […]

[3] = tested on: 129S6/SvEv mice; assay: Marble burying (MB); assay type: in vivo; conditions: for p, Fisher's PLSD Saline vs. drug, MB Marbles Buried (no.): drug 5 minutes after stress, FIG. 2K; for number of marbles buried: vs saline
Procedure: The MB assay was conducted in a clean cage (10.5 in×5.5 in) containing soft pliable Beta Chip bedding (Northeastern Products Corp, Warrensburg, N.Y.). The cage contained 16 marbles set up in 4 rows of 4 across. Mice were given 30 minutes to explore and bury. At the end of the assay, the percentage of marbles buried was calculated.

[4] = tested on: 129S6/SvEv mice; assay: Novelty suppressed feeding (NSF); assay type: in vivo; conditions: for Novelty Suppressed Feeding, Latency to feed in OF (sec), p (Fisher's LSD): FIG. 8P
Procedure: Testing was performed as previously described (47). Briefly, the NSF testing apparatus consisted of a plastic box (50×50×20 cm). The floor of which was covered with approximately 2 cm of wooden bedding and the arena was brightly lit (approximately 1000 lux). Mice were food restricted for 24 h prior to testing. At the time of testing, a single pellet of food (regular chow) was placed on a white paper platform positioned in the center of the box. Each animal was placed in a corner of the box, and a stopwatch was immediately started. The latency of the mice to begin eating in the arena was recorded Immediately after the latency was recorded, the food pellet was removed from the arena. The mice were then placed back into their home cage. The latency to eat and the amount of food consumed in 5 min were measured (home cage consumption), followed by an assessment of post-restriction weight. A Kaplan-Meier survival analysis was used due to the lack of normal distribution of data. The Mantel-Cox log-rank test was used to evaluate differences between the experimental groups.

[5] = tested on: NMDARs; conditions: ex vivo autoradiography and immunohistochemical staining; cited from earlier work
[6] = tested on: NMDAR; conditions: relative to (R,S)-ketamine; cited from earlier work
[7] = 1 week prior to CFC, (R,S)-ketamine 30 mg/kg, FENM 10, 20 or 30 mg/kg, vs saline
[8] = 5 min after context re-exposure 1, (R,S)-ketamine 30 mg/kg, FENM 20 mg/kg, vs saline
[9] = 5 min prior to CFC, (R,S)-ketamine 30 mg/kg, FENM 20 mg/kg, vs saline
[10] = 5 minutes after CFC, re-exposure 1 day after training, (R,S)-ketamine 30 mg/kg, FENM 20 mg/kg, vs saline
[11] = 5 minutes after CFC, re-exposure 5 days after training, (R,S)-ketamine 30 mg/kg, FENM 10, 20 or 30 mg/kg, vs saline
[12] = 5 minutes prior to re-exposure 1, (R,S)-ketamine 30 mg/kg, FENM 20 mg/kg, vs saline
[13] = non-stressed mice, FENM 20 mg/kg 1 hour before the start of the OF, vs saline

Row | Structure (SMILES) | p, Fisher's PLSD Saline vs. drug, MB Marbles Buried (no.) ([3]; 30 mg/kg) | latency to feed in the open arena (NSF) [4, 7] | latency to eat in the NSF arena [4, 8] | latency to eat in the homecage (NSF) [4, 8] | latency to feed in the open arena (NSF) [4, 9] | latency to feed in the home cage (NSF) [4, 10] | latency to feed in the open arena (NSF) [4, 10] | latency to feed in the open arena (NSF) [4, 11] | latency to eat in the NSF arena [4, 12] | latency to eat in the homecage (NSF) [4, 12] | other results
1 | CNC1(c2ccccc2Cl)CCCCC1=O (racemic) [(R,S)-ketamine, reference compound] | 0.7292 | did not alter | did not alter | did not alter | increased the latency to feed | did not alter | did not alter | did not alter | did not alter | did not alter | duration of relief of depressive symptoms [1]: up to 3 weeks; time to relief of depressive symptoms after administration [1]: 2 h; c-fos expression in the ventral CA3 of the hippocampus [2]: significantly increased c-fos expression; Novelty Suppressed Feeding, Latency to feed in OF (sec), p (Fisher's LSD) ([4]; Saline vs. (R,S)-ketamine (30 mg/kg)): 0.0575; [18F]-FENM colocalization with NMDARs when (R,S)-ketamine was administered [5]: colocalization with NMDARs was lost
2 | NC12CC3CC(C1)CC(CCF)(C3)C2 [FENM, 1-amino-3-fluoroethyl-adamantane] | 0.0097 | did not alter | did not alter | did not alter | but not FENM, increased | did not alter | did not alter | did not alter | did not alter | did not alter | affinity as NMDAR antagonist [6]: lower affinity than (R,S)-ketamine; p, Fisher's PLSD Saline vs. drug, MB Marbles Buried (no.) ([3]; 10 mg/kg): 0.0737; number of marbles buried ([3]; 5 minutes after CFC, re-exposure 5 days after training, FENM 20 and 30 mg/kg, (R,S)-ketamine 30 mg/kg): decreased the number of marbles buried; p, Fisher's PLSD Saline vs. drug, MB Marbles Buried (no.) ([3]; dose (20)): 0.0002; number of marbles buried ([3]; non-stressed mice, FENM 20 mg/kg 1 hour before the start of the OF): did not affect; p, Marbles Buried (no.), MB, Saline vs. FENM ([3]; t-test, Baseline, anxiety cohort, FENM 20 mg/kg, FIG. 7F): 0.4657; Novelty Suppressed Feeding, Latency to feed in OF (sec), p (Fisher's LSD) ([4]; (R,S)-ketamine (30 mg/kg) vs. FENM (20 mg/kg)): 0.0130; Behavior: Hypophagia ([4]; Baseline Anxiolytic, dose 20 mg/kg): ↓; p, Fraction of mice not eating in OF, NSF, Saline vs. FENM ([4]; Log-rank (Mantel-Cox) test, Baseline, anxiety cohort, FENM 20 mg/kg, FIG. 7J): 0.0210; p, Fraction of mice not eating in HC, NSF, Saline vs. FENM ([4]; Log-rank (Mantel-Cox) test, Baseline, anxiety cohort, FENM 20 mg/kg, FIG. 7K): 0.7953; Novelty Suppressed Feeding, Latency to feed in OF (sec), p (Fisher's LSD) ([4]; Saline vs. FENM (20 mg/kg)): 0.4585; latency to approach the pellet in the NSF arena [4, 13]: significantly decreased; latency to eat in the homecage (NSF) [4, 13]: did not alter; p, Change in Weight (g), NSF, Saline vs. FENM ([4]; t-test, Baseline, anxiety cohort, FENM 20 mg/kg, FIG. 7L): 0.1661; p, Food Eaten (g), NSF, Saline vs. FENM ([4]; t-test, Baseline, anxiety cohort, FENM 20 mg/kg, FIG. 7M): 0.0801
